{
  "source": "patent US20110217300A1",
  "about": "“Quinazolinone Compounds and Methods of Use Thereof” (priority 2007, published 2011)",
  "target": "T1, HsEg5 (Homo sapiens, UniProt P52732)",
  "T1 sequence (P52732 18-359 limits assumed)": "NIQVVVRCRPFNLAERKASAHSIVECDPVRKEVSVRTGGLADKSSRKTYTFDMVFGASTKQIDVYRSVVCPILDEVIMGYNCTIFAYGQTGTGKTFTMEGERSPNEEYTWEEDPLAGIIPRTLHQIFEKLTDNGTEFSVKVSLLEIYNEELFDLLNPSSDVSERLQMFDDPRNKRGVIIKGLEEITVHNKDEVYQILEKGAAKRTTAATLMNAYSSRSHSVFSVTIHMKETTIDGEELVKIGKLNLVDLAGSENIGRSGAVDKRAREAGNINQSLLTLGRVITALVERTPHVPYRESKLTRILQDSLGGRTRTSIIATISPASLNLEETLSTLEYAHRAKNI",
  "experiment": "Fluorescence detection of HsEg5 ATPase activity (ADP Quest, automated)",
  "format": "biochemical",
  "how_it_was_run": "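Microtubule-activated HsEg5 motor fragment (10 nM, 500 nM MTs) preincubated 10 min with compound, then 20 μM ATP for 10 min at room temperature in Pipes pH 7.0, MgCl2, paclitaxel, 0.3% DMSO. ADP detected via coupled-enzyme resorufin fluorescence; IC50 over 100 μM–5 nM.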",
  "data": [
    {"smiles": "C#CC[C@H](c1nc2cc(Cl)ccc2c(=O)n1Nc1ccccc1)N(CCCN)C(=O)c1cccc(Cl)c1F", "note": "[Compound 1, N-(3-Amino-propyl)-3-chloro-N—[(R)-1-(7-chloro-4-oxo-3-phenylamino-3,4-dihydro-quinazolin-2-yl)-but-3-ynyl]-2-fluoro-benzamide]", "values": [
      {"measurement": "IC50", "value": 0.028, "unit": "µM"}
    ]}
  ]
}
